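Step 1: Grow cells in 96-well plates. Step 2: Expose to compound for 48 hours at 5 concentrations. Step 3: Interpolate endpoints linearly; if unreached, use highest concentration. TGI is the concentration that stops growth completely.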
Legend:
Assay in all cases: inhibition of tumour cell growth, NCI panel, 48 h
[1] = system: HOP-92 NSCLC
[2] = system: MOLT-4 leukemia
[3] = system: OVCAR-5 ovarian
[4] = system: SK-MEL-5 melanoma
[5] = system: SNB-19 CNS
[6] = system: UACC-257 melanoma
[7] = system: CCRF-CEM leukemia
[8] = system: HCT-116 colon
[9] = system: A549 NSCLC
[10] = system: OVCAR-4 ovarian
[11] = system: NCI-H226 lung
[12] = system: COLO 205 colon
[13] = system: SF-295 CNS
[14] = system: RPMI-8226 leukemia
[15] = system: SK-OV-3 ovarian
[16] = system: SW-620 colon
[17] = system: U251 CNS
[18] = system: ACHN renal
[19] = system: HCC-2998 colon
[20] = system: SK-MEL-28 melanoma

COC1/C=C/C=C(/C)Cc2cc(O)c(Cl)c(c2)N(C)C(=O)CC(OC(=O)C(C)C)C2(C)OC2C(C)C2CC1(O)NC(=O)O2 (centres undefined)
TGI [1]: > 100 µM
TGI [2]: > 100 µM
TGI [3]: > 71.2 µM
TGI [4]: < 0.0116 µM
TGI [5]: > 100 µM
TGI [6]: > 100 µM
TGI [7]: > 100 µM
TGI [8]: > 100 µM
TGI [9]: > 100 µM
TGI [10]: < 0.01 µM
TGI [11]: > 100 µM
TGI [12]: 0.0104 µM
TGI [13]: > 100 µM
TGI [14]: > 100 µM
TGI [15]: > 100 µM
TGI [16]: > 100 µM
TGI [17]: > 43.9 µM
TGI [18]: > 100 µM

CCOC(=O)c1nc2ccc(OC)cc2c2c1Cc1ccccc1-2
TGI [2]: > 100 µM
TGI [3]: > 100 µM
TGI [4]: > 100 µM
TGI [19]: > 100 µM
TGI [5]: > 100 µM
TGI [6]: > 100 µM
TGI [8]: > 100 µM
TGI [9]: > 100 µM
TGI [10]: > 100 µM
TGI [11]: > 100 µM
TGI [12]: > 100 µM
TGI [13]: > 100 µM
TGI [14]: > 100 µM
TGI [16]: > 100 µM
TGI [20]: > 100 µM
TGI [17]: > 100 µM
TGI [18]: > 100 µM

O=C1CC(/C=C/c2ccco2)=C(O)C1=O
TGI [1]: 28.4 µM
TGI [2]: 60.8 µM
TGI [3]: 30.1 µM
TGI [4]: 26.5 µM
TGI [19]: 31.9 µM
TGI [5]: 30.9 µM
TGI [6]: 33.2 µM
TGI [7]: 8.68 µM
TGI [8]: 30.4 µM
TGI [9]: 62.8 µM
TGI [10]: 27.3 µM
TGI [11]: 69.1 µM
TGI [12]: 29.2 µM
TGI [13]: 40.9 µM
TGI [14]: 40.2 µM
TGI [15]: 54.5 µM
TGI [16]: 31.6 µM
TGI [20]: 48.3 µM
TGI [17]: 28.6 µM
TGI [18]: 34.3 µM

CC(=O)C(=O)NC1/C=C(C)\C=C/C(O)C/C=C(C)\C=C/C(O)CC2OC(=O)C1(C)C(=O)C2C (centres undefined)
TGI [1]: > 100 µM
TGI [2]: > 100 µM
TGI [3]: > 100 µM
TGI [4]: > 100 µM
TGI [19]: > 100 µM
TGI [5]: > 100 µM
TGI [6]: > 100 µM
TGI [7]: > 100 µM
TGI [8]: > 100 µM
TGI [9]: > 100 µM
TGI [10]: > 100 µM
TGI [11]: > 100 µM
TGI [12]: > 100 µM
TGI [13]: > 100 µM
TGI [14]: 98.9 µM
TGI [15]: > 100 µM
TGI [16]: > 100 µM
TGI [20]: > 100 µM
TGI [17]: > 100 µM

Reference: PubChem BioAssay (NCI)
